Patent US6734190B2, “Dihydrodipyrazolopyridinylbenzamide and -sulfonamide inhibitors of B7-1” (Wyeth, priority 2002, dated 2004)

How the values were obtained:
[1] = target: T1, B7-1/CD28 (Homo sapiens, UniProt P33681); assay: CD28/B7-1 ELISA (B7-1/CD28 binding inhibition); conditions: CD28-Fc coated wells; B7-1-Fc-biotin/streptavidin-alkaline phosphatase detection complex; 1% DMSO
T1 sequence (P33681 35-242 limits assumed): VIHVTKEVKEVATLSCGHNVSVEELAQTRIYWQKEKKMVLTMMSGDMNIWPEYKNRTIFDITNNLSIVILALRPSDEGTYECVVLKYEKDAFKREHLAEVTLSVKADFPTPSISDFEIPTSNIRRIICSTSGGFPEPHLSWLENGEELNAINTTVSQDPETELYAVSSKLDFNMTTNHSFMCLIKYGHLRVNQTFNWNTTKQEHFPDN
Experimental: Evaluation of B7-1/CD28 Binding Inhibition for Test Compounds
Wells are coated with 300 ng CD28-Fc in carbonate buffer (pH 9.4) overnight at 4° C., blocked with 1% bovine serum albumin in tris-buffered saline (TBS) for 1 h at 22° C. and washed 3 times in TBS prior to assay. The detection complex is formed as follows: B7-1-Fc-biotin, prepared using NHS-LC-biotin (Pierce #21335) according to the manufacturers instructions (4.1 moles biotinimole Fc), is added at 0.8 ug/ml to streptavidin-alkaline phosphatase (Caltag Sa1008) at 1:1000 in TBS. A solution of test compound in dimethylsulfoxide (1% final) are added to this complex and incubated 30 min at 22° C. Detection complex (+/−inhibitors) is then added to the CD28 coated wells for 25 min at 22° C., washed 5 times with TBS, developed with the colorimetric substrate pNPP (Pierce #34045) in diethanolamine/MgCl2 buffer (pH 9.5) and read at 405 nm. The inhibition constant (IC50) is calculated by subtracting background binding and comparing to uninhibited (DMSO alone) controls. The inhibition constant represents the concentration of test compound required to achieve 50% inhibition.

IC50 [1]	melting point	Structure (SMILES)
180 nM	189.8 to 192.7 °C	Cn1ncc2c3[nH]n(-c4ccc(C(=O)N5CCCC(CO)C5)cc4)c(=O)c3c(-c3cccc(C(F)(F)F)c3)nc21 (stereo not drawn) [Example 36]
13 nM	287 to 290 °C	Cn1ncc2c3[nH]n(-c4ccc(C(=O)N5CCOCC5)cc4)c(=O)c3c(-c3cccc(C(F)(F)F)c3)nc21 [Example 33, 6-methyl-2-[4-(4-morpholinylcarbonyl)phenyl]-4-[3-(trifluoromethyl)phenyl]-1,6-dihydrodipyrazolo[3,4-b:3,4-d]pyridin-3(2H)-one]
94 nM	220 to 222 °C	COC(=O)c1cccc(NC(=O)c2ccc(-n3[nH]c4c(c(-c5cccc(C(F)(F)F)c5)nc5c4cnn5C)c3=O)cc2)c1 [Example 42]
57 nM	183 °C (dec.)	Cn1ncc2c3[nH]n(-c4cccc(C(=O)NCc5ccc(N)cc5)c4)c(=O)c3c(-c3cccc(C(F)(F)F)c3)nc21 [Example 16]
100 nM	168 to 171 °C	Cn1ncc2c3[nH]n(-c4cccc(C(=O)N5CCC[C@H]5C(=O)O)c4)c(=O)c3c(-c3cccc(C(F)(F)F)c3)nc21 [Example 69]
88 nM	280 °C (dec.)	Cn1ncc2c3[nH]n(-c4ccc(C(=O)NCCCCO)cc4)c(=O)c3c(-c3cccc(C(F)(F)F)c3)nc21 [Example 37]
110 nM	210 °C (dec.)	COCc1cccc(NC(=O)c2ccc(-n3[nH]c4c(c(-c5cccc(C(F)(F)F)c5)nc5c4cnn5C)c3=O)cc2)c1 [Example 29]
310 nM	176 to 179 °C	Cn1ncc2c3[nH]n(-c4ccc(C(=O)N5CCOCC5)c(F)c4)c(=O)c3c(-c3cccc(C(F)(F)F)c3)nc21 [Example 30]
300 nM	298 °C (dec.)	Cn1ncc2c3[nH]n(-c4ccc(C(=O)Nc5cccc6c5CCCC6O)cc4)c(=O)c3c(-c3cccc(C(F)(F)F)c3)nc21 (stereo not drawn) [Example 43]
55 nM	172 to 176 °C	COc1cc(CNC(=O)c2cccc(-n3[nH]c4c(c(-c5cccc(C(F)(F)F)c5)nc5c4cnn5C)c3=O)c2)ccc1O [Example 17]
79 nM	189 to 192 °C	Cn1ncc2c3[nH]n(-c4ccc(C(=O)NCc5ccccc5)cc4)c(=O)c3c(-c3cccc(C(F)(F)F)c3)nc21 [Example 32]
500 nM	191 to 194 °C	CN1CCN(C(=O)c2ccc(-n3[nH]c4c(c(-c5cccc(C(F)(F)F)c5)nc5c4cnn5C)c3=O)cc2)CC1 [Example 27]
